In US9347942B2, “Ultrasensitive cell based sensors and uses thereof” (CANVAX BIOTECH SL, priority 2010, dated 2016):

How the values were obtained:
Assay type in all cases: cell-based
CHRM2 [1] = molecular target: T1, CHRM2 (Homo sapiens, UniProt P08172); assay: Number of steps needed, 384 well mix and read assay (Example 13); conditions: carbachol 10 uM, 5.000 cells, only 15 uL of medium aspirated, 30 minutes
T1 construct: the entire human GPCR; mouse immunoglobulin kappa signal peptide (N); expressed in transfected cells
T1 sequence (P08172 2-466): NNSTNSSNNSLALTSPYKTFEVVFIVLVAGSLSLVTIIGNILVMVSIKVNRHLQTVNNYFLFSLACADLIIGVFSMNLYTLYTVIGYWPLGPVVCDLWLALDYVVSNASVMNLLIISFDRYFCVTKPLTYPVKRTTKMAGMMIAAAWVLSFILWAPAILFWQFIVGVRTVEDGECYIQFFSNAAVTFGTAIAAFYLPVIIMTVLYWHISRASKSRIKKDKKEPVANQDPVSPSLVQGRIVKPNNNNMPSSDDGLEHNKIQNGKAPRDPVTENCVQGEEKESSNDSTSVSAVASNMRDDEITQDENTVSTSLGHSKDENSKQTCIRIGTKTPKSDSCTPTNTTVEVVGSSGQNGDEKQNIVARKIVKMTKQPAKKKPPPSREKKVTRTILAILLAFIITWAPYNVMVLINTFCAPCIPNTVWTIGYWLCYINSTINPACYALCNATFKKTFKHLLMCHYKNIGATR
From the text: This experiment was designed to test how many steps are needed for an assay with the cell based sensor, in particular if a washing step is needed before assay. As the RBL-2H3 is an adherent cell line at least one step of aspiration of cell culture medium is needed. If all cell culture medium is aspirated then cells should become dry and eventually die in particular if there is a time interval between aspiration and addition of compounds to test for exocytosis. For this reason an additional treatment was included were not all cell culture medium is aspirated. But if not all the cell culture medium is aspirated then some of the reporter secreted by cells after overnight culture contributes to basal exocytosis. CHRM2 and granzyme B expressing cells from example #12 were used in this experiment but cells were seeded 16 hours before experiment at 5.000 cells per well of a 384 well plate with black walls in 20 uL of culture medium. Before experiment three treatments were made: (1) discarding all the 20 uL of medium without washing; (2) discarding only 15 uL of cell culture medium and (3) discarding only 15 uL of cell culture medium and washing of the cells using 75 uL of Hanks Balanced Salt Solution (HBSS) containing 0.1% BSA and aspiration of 75 uL of washing buffer. […] Plates were incubated at 37° C. in the fluorescence reader and read at 0, 15, 30, 45 and 60 minutes. […]

CHRM2 [2] = molecular target: T1, CHRM2; assay: Exocytosis time optimisation, granzyme B FRET readout (Example 12); conditions: agonist 10 uM
From the text: An experiment was designed to optimize assay conditions such as: exocytosis time, number of steps needed for assay and uses of cells in suspension. Cells developed in example #9 expressing both a GPCR and human granzyme B were used in this example for optimization of exocytosis time. GPCRs included were CHRM2 (an alpha-i coupled GPCR) and bradykinin type B1 receptor (an alpha-q coupled GPCR). Carbachol and kallinin from Sigma-Aldrich (USA) were used as ligands for CHRM2 and bradykinin type B1 receptor, respectively and used at 10 uM final concentration in HBSS buffer. Cells were seeded the night before experiment at 20.000 cells per well of a 96-well microplate in 100 uL of complete cell culture medium. Next day cells were washed with HBSS buffer and incubated with the ligand (agonist) at 10 uM of each GPCR in 30 uL of HBSS buffer at 37 Celsius degrees for 5, 15, 30 or 60 minutes and after centrifugation at 400 g for 5 minutes supernatants were analysed for human granzyme B activity using FAM-[…]-TAMRA at 1 uM final concentration as the human granzyme B substrate. Released FAM was measured by excitation at 485 nm and emission at 535 nm in a BMG Labtech microplate fluorimeter in 96 well microplates. Microplates were incubated at 37 Celsius degrees on the reader and were kinetically read at 0, 15, 30, 45 and 60 minutes. Control wells with substrate only in HBSS buffer were included to subtract autofluorescence of substrates to both cells treated with ligands and to cells treated with HBSS buffer only. […] The signal to background is lower at longer exocytosis times due to the higher increase in basal release than the increase in specific signal after the first 5 to 15 minutes. Thus, any exocytosis time from probably less than 5 minutes to at least 60 minutes may be used for the methods of the present invention but longer exocytosis times produce a sensor with a lower signal to background, exocytosis is nearly complete at 5 minutes and signal to background is good for a robust sensor.

CHRM2 [3] = molecular target: T1, CHRM2; assay: Multiplex assay, Sensor B channel (CHRM2 and granzyme B) (Example 14); conditions: granzyme B substrate 1 uM
From the text: The principle of multiplex reactions is illustrated in FIG. 5. RBL2H3 cells were stably transfected with a pair of a GPCR as exocytosis modulator and a granzyme as a granule stored reporter as described in example 9. Combinations included were: hIL8 receptor (hIL8RA) and human granzyme A (Sensor A) and CHRM2 and granzyme B expressing cells of example #12 (Sensor B). Human IL8 was used as agonist of hll_8R while carbachol was used as CHRM2 agonist. […] As both substrates uses the same pair of fluorophore (FAM) and quencher (TAMRA) only one substrate could be added to reaction vessel for specific detection at 535 nm after excitation at 485 nm. […] Sensors, agonists and substrates were mixed in a total volume of 20 uL of HBSS in a black walled 384 well microplate and the microplate was incubated at 37 Celsius degrees in a BMG-Labtech microplate fluorimeter and read at 0, 15, 30, 45 and 60 minutes.

C[N+](C)(C)CCOC(N)=O [Carbachol, carbachol]
signal to background (CHRM2 [1]): 8-10
exocytosis, % of maximal (CHRM2 [2]; 5 minutes, 20.000 cells): > 90%
signal to background (S/B) (CHRM2 [2]; medium taken at 5 to 15 minutes): 20-22
signal to background (S/B) (CHRM2 [2]; medium taken at 30 minutes): 15-17
signal to background (S/B) (CHRM2 [2]; medium taken at 60 minutes): 8-10
Signal to background at 30 min (CHRM2 [3]; Condition 7: 5000 cells Sensor B, carbachol 10 uM): 20
Signal to background at 30 min (CHRM2 [3]; Condition 10: Sensor A 12500 + Sensor B 5000 cells, IL8 10 uM + carbachol 10 uM): 20
